Results published in the supplement of paper PMC10307832.

Key:
Experiment in all cases: relative viability (nuclei count vs DMSO), 5 days (fraction); higher = more cells survive
Temozolomide = compound: Cn1nnc2c(C(N)=O)ncn2c1=O [Temozolomide]
Method in brief: (§1)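 Viability here means nuclei in treated wells divided by nuclei in vehicle wells, reported as the median across plates. Only plates with control CV below 25% and at least one doubling passed. Lung cancer cell lines in 1536-well plates were exposed to five √10-spaced library-drug doses for 5 days and counted from 4× Hoechst images in MetaXpress.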

AZD5582 = compound: C[C@@H](C(=O)N[C@@H](C1CCCCC1)C(=O)N2CCC[C@H]2C(=O)N[C@@H]3[C@@H](CC4=CC=CC=C34)OCC#CC#CCO[C@@H]5CC6=CC=CC=C6[C@@H]5NC(=O)[C@@H]7CCCN7C(=O)[C@H](C8CCCCC8)NC(=O)[C@H](C)NC)NC [AZD5582]
Method in brief: as §1

[1] = compound: Cn1nnc2c(C(N)=O)ncn2c1=O [Temozolomide] + CC1(C)CCC(c2ccc(Cl)cc2)=C(CN2CCN(c3ccc(C(=O)NS(=O)(=O)c4ccc(N[C@H](CCN5CCOCC5)CSc5ccccc5)c(S(=O)(=O)C(F)(F)F)c4)cc3)CC2)C1 [Navitoclax] (partner 0.5 µM)
Method in brief: (§2)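 Relative viability was taken as the ratio of nuclei in treated wells to nuclei in vehicle wells. Lung cancer cell lines in 1536-well plates received compounds by pin tool one day after seeding, either one drug alone or a fixed anchor-drug dose plus five library-drug doses (not always all listed) in √10 steps. Nuclei were counted on 4× images after 5 days of treatment, and values are medians of duplicate plates.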

AZD5582 + Trametinib = compound: C[C@@H](C(=O)N[C@@H](C1CCCCC1)C(=O)N2CCC[C@H]2C(=O)N[C@@H]3[C@@H](CC4=CC=CC=C34)OCC#CC#CCO[C@@H]5CC6=CC=CC=C6[C@@H]5NC(=O)[C@@H]7CCCN7C(=O)[C@H](C8CCCCC8)NC(=O)[C@H](C)NC)NC [AZD5582] + CC(=O)Nc1cccc(-n2c(=O)n(C3CC3)c(=O)c3c(Nc4ccc(I)cc4F)n(C)c(=O)c(C)c32)c1 [Trametinib] (partner 0.02 µM)
Method in brief: as §2

Cell Line	relative viability (Temozolomide; 0.2 µM)	relative viability (Temozolomide; 0.6325 µM)	relative viability (Temozolomide; 2 µM)	relative viability (Temozolomide; 6.325 µM)	relative viability (Temozolomide; 20 µM)	relative viability (AZD5582; 0.001581 µM)	relative viability (AZD5582; 0.005 µM)	relative viability (AZD5582; 0.01581 µM)	relative viability (AZD5582; 0.05 µM)	relative viability ([1]; first compound 0.2 µM)	relative viability ([1]; first compound 0.6325 µM)	relative viability ([1]; first compound 2 µM)	relative viability ([1]; first compound 6.325 µM)	relative viability ([1]; first compound 20 µM)	relative viability (AZD5582 + Trametinib; first compound 0.001581 µM)	relative viability (AZD5582 + Trametinib; first compound 0.005 µM)	relative viability (AZD5582 + Trametinib; first compound 0.01581 µM)	relative viability (AZD5582 + Trametinib; first compound 0.05 µM)
NCI-H1355	1.01	0.985	1.06	0.947	0.982	0.902	1.01	0.771	0.823	0.837	0.927	0.964	0.927	0.913	0.396	0.444	0.452	0.409
SK-LU-1	1.09	1.03	0.899	0.554	0.467	0.888	0.777	0.939	0.47	1.03	0.88	0.8	0.522	0.189	0.379	0.383	0.407	0.236
LK-2	0.997	1.06	0.961	0.645	0.407	0.766	1.07	0.876	1.23	0.756	0.874	0.851	0.475	0.35	0.466	0.81	0.731	1.04
NCI-H2085	1	1.02	1.02	0.964	0.949	1.05	1.08	0.998	0.993	1.2	1.24	1.24	1.18	1.06	0.433	0.643	0.394	0.61
RERF-LC-KJ	0.982	1	1.04	0.978	1.01	0.715	0.668	0.912	0.802	1.04	0.884	0.928	0.951	1.06	0.764	0.818	0.898	0.781
NCI-H727	0.83	0.923	1.13	0.798	0.805	1.02	1.01	0.858	0.979	0.409	0.428	0.496	0.469	0.324	0.398	0.383	0.37	0.406
NCI-H1651	0.983	0.997	0.984	0.997	0.993	0.932	1.01	0.952	1.13	1.15	1.01	1.07	0.958	1	0.751	0.847	0.8	0.946
LCLC-97TM1	1.15	0.985	0.764	0.83	1.1	0.797	1.06	0.644	0.525	0.546	0.443	0.49	0.445	0.512	0.203	0.25	0.184	0.189
NCI-H1734	1.12	1.05	1.06	0.932	0.976	0.968	1.11	1.03	1.23	0.803	0.854	0.886	0.811	0.835	0.621	0.696	0.743	0.701
NCI-H2126	0.957	1.03	1.05	0.98	1.03	0.93	1.04	0.808	0.901	0.853	0.829	0.83	0.886	0.844	0.581	0.594	0.594	0.614
PC-3 [JPC-3]	0.954	1.08	1.09	1.06	0.451	0.885	0.898	0.9	0.531	0.725	0.847	0.784	0.82	0.364	0.668	0.627	0.696	0.486
NCI-H1993	0.866	0.968	0.953	0.944	0.758	0.758	1.1	0.957	1	0.823	0.893	0.889	0.879	0.804	0.455	0.505	0.493	0.526
NCI-H2087	1.31	1.12	1.07	0.937	1.01	0.98	1.12	0.982	1.03	1.15	1.05	1.02	0.891	0.965	0.184	0.244	0.163	0.22
HOP-62	1.11	0.997	1.04	0.926	1.01	0.875	1.03	1.04	1.06	1.05	1	1.13	0.941	1.14	0.407	0.456	0.418	0.446
HCC-15	1.12	1.01	1	0.996	1.07	0.862	0.933	0.739	0.847	0.746	0.731	0.805	0.687	0.689	0.328	0.39	0.332	0.365
NCI-H2405	1.05	1	1.06	0.935	0.978	1	1.12	0.957	1.02	0.34	0.775	0.995	0.73	0.82	0.705	0.739	0.545	0.709
COR-L 105	0.895	1.02	0.993	0.883	0.507	0.936	1.11	0.876	1.02	0.819	0.866	0.996	0.858	0.649	0.445	0.517	0.427	0.539
PC-14	1.07	1.03	0.994	0.944	0.529	0.859	1.03	0.926	0.932	1.07	1.01	1.06	0.956	0.928	0.404	0.44	0.722	0.397
NCI-H1975	1.01	1.01	1.09	0.919	0.957	1	1.13	0.944	1.2	1.2	1.11	1.2	1.07	1.13	0.444	0.434	0.448	0.322
NCI-H2228	1.19	0.928	1.15	0.881	1.05	1.01	1.05	0.942	0.538	0.921	1.43	0.951	0.857	1.26	0.529	0.434	0.714	0.161
NCI-H460	1.02	0.998	1	1.03	1.1	0.958	0.991	0.965	1.1	1.28	1.08	1.22	1.22	1.18	0.118	0.243	0.144	0.221
NCI-H1792	1.22	1.02	1.07	0.854	1.07	0.754	0.971	0.712	1.21	0.852	0.773	0.655	0.577	0.616	0.347	0.482	0.478	0.669
NCI-H2023	0.979	0.943	1.01	0.984	0.941	0.842	0.962	0.84	0.934	1.02	1	1.13	0.985	0.997	0.421	0.525	0.595	0.36
LU99A	1.06	0.946	1.03	0.97	1.03	1.07	1.02	0.954	1.11	0.894	0.781	0.733	0.713	0.746	0.575	0.68	0.534	0.617
SW 1573	0.998	0.992	1.07	0.948	0.971	0.939	1.04	1.03	1.13	0.993	1.03	1.05	1	0.935	0.473	0.586	0.537	0.662
COR-L23	1.19	1.04	1.05	1.04	0.955	1.02	1.11	0.966	1.03	1.2	0.933	1.02	0.976	0.938	0.485	0.75	0.584	0.523
NCI-H23	1.2	1.03	0.994	0.909	0.993	0.782	0.848	0.477	0.519	1.04	0.93	0.857	0.86	0.851	0.31	0.37	0.359	0.319
ChaGo-K-1	1.06	0.983	1.08	0.933	0.928	0.978	1.02	0.971	0.975	1.11	1.16	1.45	0.968	0.964	0.897	0.883	0.886	0.936
NCI-H1944	0.946	0.959	1.04	0.919	0.816	0.867	1.04	0.921	1.01	0.855	1.05	1.12	1.04	0.913	0.36	0.487	0.406	0.485
